The values below come from patent US20240076347A1, “METHODS FOR PREVENTING FUNGAL INFECTIONS” (Cidara Therapeutics, Inc., priority 2016, published 2024).

The subject of one experiment is A. fumigatus AF293. Put plainly: Pulmonary aspergillosis in neutropenic ICR mice (Examples 14, 15), prophylaxis, survival. Format: in vivo, Aspergillus fumigatus. The protocol:
Pulmonary aspergillosis: ICR mice (10/grp) were made neutropenic by cyclophosphamide on Day −4 (150 mg/kg), and CPM/cortisone on Day −1 (150/175 mg/kg). Intranasal infection with A. fumigatus AF293 (10^5 CFU/mouse) on Day 0. Prophylaxis CD101 as a single dose (IP; 5, 10, 20 mg/kg) or posaconazole (PO; 2 and 10 mg/kg) 1 day prior to infection. Survival monitored for 10 days.
Pulmonary aspergillosis: ICR mice (10/grp) were made neutropenic by cyclophosphamide on Day −4 (150 mg/kg), and cyclophosphamide/cortisone was given on Day −1 (150/175 mg/kg). Intranasal challenge with A. fumigatus AF293 (10^5 CFU/mouse) was initiated on Day 0 and prophylaxis with CD101 as a single dose (IP; 5, 10, 20 mg/kg) or posaconazole (PO; 2 and 10 mg/kg) was started 1 day prior to infection. Survival was monitored for 10 days.

The subject of experiment [1] is Aspergillus fumigatus strain AF293. Put plainly: Murine model of pulmonary aspergillosis (Example 16), survival and lung burden. Format: in vivo. As to conditions: for Group Geometric mean / Log10 Group Geometric mean / Log10 reduction from vehicle control: terminal lung burden. How it is done:
Animal strain and housing. Mice used in these studies were supplied by Charles River (Margate UK) and were specific pathogen free. The strain of mice used was ICR (also known as CD1 Mice) which is a well characterized outbred murine strain. Male mice were 11-15 g on receipt and allowed to acclimatize for at least 7 days.
Immunosuppression. Mice were immunosuppressed on Day −4 with 150 mg/kg cyclophosphamide administered intraperitoneally (IP), and on Day −1 with 150 mg/kg cyclophosphamide IP and 175 mg/kg cortisone acetate administered subcutaneously (SC). To prevent bacterial infection due to the immunosuppression mice were given once daily 50 mg/kg ceftazidime.
Preparation of Organism and Infection. A. fumigatus strain AF293 inoculum was prepared from spore cultures grown on Sabouraud Dextrose agar (SAB) containing 50 μg/mL chloramphenicol (SABC) in vented tissue culture flasks. Following incubation for 7-10 days at 30° C., spore cultures were washed in sterile phosphate buffered saline (PBS) containing 0.05% Tween 80. Spore count was determined using a haemocytometer and spores were diluted in PBS to ˜6.9×10^6 CFU/mL. Inoculum concentration was confirmed by quantitative culture onto SABC agar.
Neutropenic mice lungs were infected with 0.04 mL (0.02 mL/nare) of ˜4.17×10^6 CFU/mL (˜1.67×10^5 CFU/mouse) of A. fumigatus AF293 by intranasal (IN) instillation under temporary 2.5% isoflurane induced anesthesia.
Preparation of Test Articles. Micafungin (Mycamine, Astellas) was provided as a 50 mg vial (Lot 02323002, expiry 08/2017) and was prepared as per manufacturer's instructions by adding 5 mL saline for injection (SFI) directly into the vial to make up a 10 mg/mL stock solution. This solution was then diluted further in SFI to a working concentration of 0.5 mg/mL. […] It was prepared fresh once and stored at 4° C. until required.
Posaconazole (Noxafil 40 mg/mL oral suspension, Merck Sharp & Dohme Limited) was provided as a 40 mg/mL oral suspension (Lot N00801, expiry 04/2019). This suspension was then diluted further in water for infection (WFI) to a working concentration of 0.2 and 1 mg/mL. The suspension was administered orally (PO) at 10 mL/kg for 2 and 10 mg/kg doses respectively, was prepared fresh once and stored at 4° C. until required.
Test article CD101 stock was prepared at 6 mg/mL in 10% DMSO/1% Tween 20 diluent. A clear non particulate solution was obtained following gentle mixing. […] All doses were administered IP at 10 mL/kg. The study doses were kept at 4° C. until required.
Treatment. For this study, treatments were initiated on Day 1 pre infection according to treatment groups outlined in Table 22. A total of 36 mice (6/treatment group) were used in the study.
Endpoints. The primary endpoint for this study was survival within agreed ethical limits (>20% weight loss, severe hypothermia <34° C., inability to reach food or drink, severe hunching). Mice were monitored by daily weight measurements with observations as frequently as clinical condition required.
Mice presenting with severe clinical deterioration were humanely euthanized using an overdose of pentobarbitone administered by IP injection following clinical assessment and the time of death was recorded. Animal carcasses were stored at −20° C. before quantitative assessment of burden.
Ten days post infection all surviving animals were weighed and had their clinical condition assessed prior to being euthanized. Final survival numbers were recorded and analysed as described below and carcasses frozen at −20° C. prior to further processing.
Lung burden. A secondary endpoint for the study was terminal lung tissue burden. Immediately following confirmation of death, carcasses were frozen at −20° C. prior to tissue dissection and processing. The frozen carcasses were thawed at room temperature, the lungs removed and placed into pre-weighed bead-beating tubes containing 2 mL of PBS and subjected to mechanical disruption. […]

Several values for one entry are separate records, joined by “and”; a condition that tells them apart may be missing. Equal entries are not always repeated. Entries after “also recorded” stand apart in the source; their conditions may differ.

In the case of `CC[C@@H]([C@H](C)O)n1ncn(-c2ccc(N3CCN(c4ccc(OC[C@@H]5CO[C@@](Cn6cncn6)(c6ccc(F)cc6F)C5)cc4)CC3)cc2)c1=O` [Posaconazole, posaconazole], the survival rate entry with A. fumigatus AF293 (2 mg/kg PO one day prior to infection, 10 days) is listed as “no survivors”. Besides, in the experiment on A. fumigatus AF293 (10 mg/kg PO one day prior to infection, vs control), the survival rate result was “statistically-significant increase in survival rate relative to control”. Further, in experiment [1] (2 mg/kg PO once, Day −1), the “Mean Survival” value came to 77.5 h; the “Median Survival” value amounted to 69.0 h; the “survival time post infection, range” value was in the range of 69 to 114 h. In addition, the “survival vs vehicle (conclusion)” value in experiment [1] (2 mg/kg once one day pre-infection) is “did not show any improvement in survival”. Also, in experiment [1] (10 mg/kg PO once, Day −1), the “Mean Survival” value was 212 h and 211.5 h; the “Median Survival” value is reported as “could not be estimated; also recorded: cannot estimate”; the “survival time post infection, range” value was 69 to 240 h. In experiment [1] (10 mg/kg PO once, Day −1, 6 mice per group, 10 days), the “mice that survived to the end of the study” value was determined as 5 mice. Moreover, the “mice surviving to the end of the study” value in experiment [1] (10 mg/kg once 1 day pre-infection) is listed as more than 80%. For the same compound, in experiment [1] (2 mg/kg PO Day −1), the “Group Geometric mean” value is on record as 1.14 × 10^4 CFU/g, the “Log10 Group Geometric mean” value is on record as 4.06 CFU/g and the “Log10 reduction from vehicle control” value came out at 0.11 CFU/g. Further, in experiment [1] (10 mg/kg PO Day −1), the “Group Geometric mean” value is given as 2.75 × 10^3 CFU/g, the “Log10 Group Geometric mean” value is given as 3.44 CFU/g and the “Log10 reduction from vehicle control” value is recorded as 0.73 CFU/g.
